Measured values: PMC11256326, “Discovery of Heparin Mimetic, Potent, and Selective Inhibitors of Human Clotting Factor XIIIa” (ACS Omega, 2024)
Values joined by “and” are separate entries in the source; they are usually repeats but may differ in a detail not shown here. Equal values may be shown once. Read-outs that look alike come from different tables or passages of the source. Marks after values point to notes of the source that are not given here.

Tests used:
FXIIIa [1] = target: T1, FXIIIa (Homo sapiens, UniProt P00488); assay: bisubstrate, fluorescence-based trans-glutamination assay; type: biochemical; details: for HS (Hill slope), FXIIIa inhibition: logistic fit eq 1; for IC50: pH 7.4, 37 °C, substrates dansylcadaverine and N,N-dimethylcasein
T1 construct: purchased Haematologic Technologies; host or cells: human plasma
T1 sequence (P00488 39-732 limits assumed): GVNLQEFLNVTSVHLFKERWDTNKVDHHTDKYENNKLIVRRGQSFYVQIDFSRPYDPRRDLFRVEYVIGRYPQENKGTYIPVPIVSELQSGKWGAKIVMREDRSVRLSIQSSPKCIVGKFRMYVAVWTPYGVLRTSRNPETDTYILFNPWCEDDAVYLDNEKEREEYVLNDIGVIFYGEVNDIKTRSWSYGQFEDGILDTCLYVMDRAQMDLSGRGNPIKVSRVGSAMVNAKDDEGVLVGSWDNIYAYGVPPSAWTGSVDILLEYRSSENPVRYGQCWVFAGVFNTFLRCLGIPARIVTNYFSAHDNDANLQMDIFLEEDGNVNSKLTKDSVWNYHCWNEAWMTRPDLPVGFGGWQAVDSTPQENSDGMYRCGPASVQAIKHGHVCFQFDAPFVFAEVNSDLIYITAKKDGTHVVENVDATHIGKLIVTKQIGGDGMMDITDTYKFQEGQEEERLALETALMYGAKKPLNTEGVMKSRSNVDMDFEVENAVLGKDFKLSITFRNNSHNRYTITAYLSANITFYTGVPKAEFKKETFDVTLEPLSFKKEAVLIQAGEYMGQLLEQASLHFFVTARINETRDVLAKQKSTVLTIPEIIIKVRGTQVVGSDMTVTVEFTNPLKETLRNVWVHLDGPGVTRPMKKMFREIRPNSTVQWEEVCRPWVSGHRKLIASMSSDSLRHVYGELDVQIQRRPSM
Source text: A series of 27 sulfonated molecules (Figure 3) was screened for inhibition of human FXIIIa using a modified bisubstrate, fluorescence-based trans-glutamination assay, as described earlier.[36],[49] Dansylcadaverine and N,N-dimethylcasein were used as two substrates, which upon FXIIIa-dependence conjugation show a marked increase in fluorescence at 550 nm (λEX = 360 nm). The sulfonated molecules were structurally diverse given their number of anionic groups (mono- (inhibitors 24–27) to octa- (inhibitor 9)), number of building blocks (monomeric (molecules 26–29) to […] (inhibitor 14)), and the nature of the building block of oligomeric derivatives (benzamide derivatives (inhibitors 3–10, 24, and 25), triazine derivatives (inhibitors 11–14), and azo-naphthalene derivatives (molecules 15–22), and ureido-naphthalene derivative (23)) (Figure 3).
To measure the potency and efficacy of these inhibitors, the dose-dependence of FXIIIa inhibition was evaluated using logistic eq 1 (Table 1). The potency of inhibition refers to the IC50 (x-axis), whereas the efficacy refers to the net change in residual FXIIIa activity (ΔY%) (y-axis). Iodoacetamide, a nonselective inhibitor of thiol-containing enzymes, was used as a positive control.
To evaluate the effect of sulfonated molecules on human FXIIIa, a bisubstrate, fluorescence-based trans-glutamination assay was performed as we reported previously.[36],[49] Generally, 1 μL of the sulfonated molecule was diluted with 87 μL of pH 7.4 buffer (50 mM Tris-HCl, 1 mM CaCl2, 100 mM NaCl, and 2 mg/mL N,N-dimethylcasein) and 5 μL dithiothreitol (20 mM) at 37 °C followed by the addition of 2 μL of human FXIIIa (0.3 μM) and incubation for 10 min. The activity of FXIIIa was monitored following the addition of 5 μL of dansylcadaverine (2 mM) by measuring the initial rate of increase in fluorescence emission (λEx. = 360 nm and λEm. = 550 nm). Relative residual FXIIIa activity at each concentration of the inhibitor was calculated from the ratio of FXIIIa activity in the presence and absence of the inhibitor. Logistic eq 1 was used to fit the concentration dependence of residual FXIIIa activity to obtain the potency (IC50) and efficacy (ΔY%) of inhibition. [drawing 1] 1
This equation defines Y as the ratio of residual FXIIIa activity with the inhibitor present compared to its absence. YM represents the maximum possible value of residual FXIIIa activity, while YO denotes the minimum possible value. IC50 signifies the concentration of the inhibitor causing 50% enzyme activity inhibition, and HS represents the Hill slope. Determination of YM, YO, IC50, and HS values is achieved through nonlinear curve fitting of the experimental data.

normal human plasma [2] = assay: activated partial thromboplastin time (APTT) of normal human plasma; type: biochemical; details: normal human plasma, in vitro
Method: (§1) To further evaluate the selectivity as well as the potential toxicity of inhibitors, we studied their effects on the clotting times of normal human plasma as well as their effects on the proliferation of three cell lines. On the one hand, the inhibitors’ effects on activated partial thromboplastin time (APTT) and prothrombin time (PT) were measured, as described earlier under in vitro conditions,[52]−[55] using variable concentrations (0–2000 μM) (Table 3). […] On the other hand, the antiproliferative properties of inhibitors 13 and 16 were evaluated in three cell lines of breast (MCF-7), intestine (CaCo-2), and kidney (HEK-293) (Figure 5B), as described earlier.[56] […] Overall, inhibitor 16 can be considered for further development as a potent, selective, and nontoxic inhibitor of human FXIIIa.
(§2) Clotting times, including activated partial thromboplastin time (APTT) and prothrombin time (PT), were assessed in normal human plasma utilizing the BBL Fibrosystem fibrometer from Becton–Dickinson, as detailed in previous publications.[51]−[54] For the PT assay, thromboplastin-D was dissolved in 4 mL of highly purified water and then warmed to 37 °C. Subsequently, 10 μL of the inhibitor was added to 90 μL of normal human plasma and incubated for 30 s. Following this, 200 μL of prewarmed PT reagent was added, and the clotting time was recorded. In the APTT assay, 10 μL of the inhibitor was combined with 90 μL of normal human plasma and 100 μL of prewarmed APTT reagent (0.2% ellagic acid). After incubation for 4 min at 37 °C, clotting was initiated by adding 100 μL of prewarmed 0.025 M CaCl2, and the clotting time was documented. Multiple concentrations of each molecule were employed in both assays to establish a concentration vs effect curve.

normal human plasma [3] = assay: prothrombin time (PT) of normal human plasma; type: biochemical; details: in vitro
Method: as §1, §2

FXIIIa [4] = target: T1, FXIIIa; design: method as in PLoS One 11(7): e0160189; details: ref PLoS One 11(7): e0160189; cited from earlier work

| Structure (SMILES) | HS (Hill slope), FXIIIa inhibition (FXIIIa [1]) | IC50 (FXIIIa [1]) | other results |
| --- | --- | --- | --- |
| CC(=O)Nc1ccc2cc(S(=O)(=O)O)c(/N=N/c3ccc(S(=O)(=O)CCOS(=O)(=O)O)cc3)c(O)c2c1 [compound 15] | 1.0 ± 0.3 | 16.5 ± 5.3 µM | APTT2X (concentration required to double APTT) (normal human plasma [2]): >1667 µM |
| Cc1[nH]n(-c2cc(Cl)c(S(=O)(=O)O)cc2Cl)c(=O)c1/N=N/c1cc(Nc2nc(Cl)nc(Nc3ccc(S(=O)(=O)O)cc3)n2)ccc1S(=O)(=O)O [compound 11] | 0.9 ± 0.2 | 14.7 ± 3 µM | PT2X (concentration required to double PT) (normal human plasma [3]): >1667 µM; APTT2X (concentration required to double APTT) (normal human plasma [2]): 1102.72 ± 93 ^b μM |
| O=C(Nc1cccc(C(=O)Nc2ccc(S(=O)(=O)O)c3cc(S(=O)(=O)O)cc(S(=O)(=O)O)c23)c1)Nc1cccc(C(=O)Nc2ccc(S(=O)(=O)O)c3cc(S(=O)(=O)O)cc(S(=O)(=O)O)c23)c1 [compound 7] | 0.9 ± 0.2 | 162 ± 37.1 µM |  |
| O=C(Nc1ccc(C(=O)Nc2ccc(C(=O)Nc3ccc(S(=O)(=O)O)c4cc(S(=O)(=O)O)cc(S(=O)(=O)O)c34)cc2)cc1)Nc1ccc(C(=O)Nc2ccc(C(=O)Nc3ccc(S(=O)(=O)O)c4cc(S(=O)(=O)O)cc(S(=O)(=O)O)c34)cc2)cc1 [compound 5] | 1.5 ± 0.8 |  |  |
| Cc1ccc(C(=O)Nc2ccc(S(=O)(=O)O)c3cc(S(=O)(=O)O)cc(S(=O)(=O)O)c23)cc1NC(=O)c1cccc(NC(=O)Nc2cccc(C(=O)Nc3cc(C(=O)Nc4ccc(S(=O)(=O)O)c5cc(S(=O)(=O)O)cc(S(=O)(=O)O)c45)ccc3C)c2)c1 [compound 3] | 1.0 ± 0.2 | 77.2 ± 17.1 µM |  |
| CN(c1ccc2c(O)c(/N=N/c3ccccc3S(=O)(=O)O)c(S(=O)(=O)O)cc2c1)c1nc(Cl)nc(Nc2cccc(S(=O)(=O)O)c2)n1 [compound 12] | 1.0 ± 0.1 | 23.6 ± 1.5 µM | APTT2X (concentration required to double APTT) (normal human plasma [2]): 2067.59 ± 200 µM |
| O=C(Nc1cccc(C(=O)Nc2cc(C(=O)Nc3ccc(S(=O)(=O)O)c4cc(S(=O)(=O)O)cc(S(=O)(=O)O)c34)ccc2F)c1)Nc1cccc(C(=O)Nc2cc(C(=O)Nc3ccc(S(=O)(=O)O)c4cc(S(=O)(=O)O)cc(S(=O)(=O)O)c34)ccc2F)c1 [compound 4] |  | > 50 µM | FXIIIa inhibition at the highest concentration tested (FXIIIa [1]): did not inhibit |
| O=C(Nc1cc(C(=O)Nc2ccc(S(=O)(=O)O)cc2)cc(C(=O)Nc2ccc(S(=O)(=O)O)cc2)c1)Nc1cc(C(=O)Nc2ccc(S(=O)(=O)O)cc2)cc(C(=O)Nc2ccc(S(=O)(=O)O)cc2)c1 [compound 10] |  | > 50 µM | FXIIIa inhibition at the highest concentration tested (FXIIIa [1]): did not inhibit |
| Cc1ccc(C(=O)Nc2ccc(CP(=O)(O)O)cc2CP(=O)(O)O)cc1NC(=O)c1cccc(NC(=O)Nc2cccc(C(=O)Nc3cc(C(=O)Nc4ccc(CP(=O)(O)O)cc4CP(=O)(O)O)ccc3C)c2)c1 [compound 6] |  | > 1000 µM |  |
| O=S(=O)(O)c1ccc(/N=N/c2ccc(/N=N/c3c(O)c(S(=O)(=O)O)cc4cc(S(=O)(=O)O)ccc34)c(S(=O)(=O)O)c2)cc1 [compound 17] | 1.5 ± 0.3 | 15.7 ± 2.1 µM | PT2X (concentration required to double PT) (normal human plasma [3]): 868.96 ± 91 µM; APTT2X (concentration required to double APTT) (normal human plasma [2]): 681.54 ± 65 µM |
| NC(=O)CI [Iodoacetamide, reference compound] | 0.8 ± 0.2 | ~2.9 µM and 2.9 µM |  |
| O=c1c(OS(=O)(=O)O)c(-c2ccc(OS(=O)(=O)O)c(OS(=O)(=O)O)c2)oc2cc(OS(=O)(=O)O)cc(OCCCOc3cc(-c4oc5cc(OS(=O)(=O)O)cc(OCCCOc6cc(OS(=O)(=O)O)cc7oc(-c8ccc(OS(=O)(=O)O)c(OS(=O)(=O)O)c8)c(OS(=O)(=O)O)c(=O)c67)c5c(=O)c4OS(=O)(=O)O)ccc3OS(=O)(=O)O)c12 [compound 2] |  |  | fold less potent than inhibitor 16 against FXIIIa (FXIIIa [1]): at least 15 fold; HS (Hill slope), FXIIIa inhibition (FXIIIa [4]): 1.1±0.5; IC50 (FXIIIa [4]): 118 ± 50 µM |
| O=C(Nc1ccc2c(O)cc(S(=O)(=O)O)cc2c1)Nc1ccc2c(O)cc(S(=O)(=O)O)cc2c1 [compound 23] |  |  | FXIIIa inhibition at the highest concentration tested (FXIIIa [1]): did not inhibit |
| O=c1c(OS(=O)(=O)O)c(-c2ccc(OS(=O)(=O)O)c(OS(=O)(=O)O)c2)oc2cc(OS(=O)(=O)O)cc(OCCOc3cc(-c4oc5cc(OS(=O)(=O)O)cc(OCCOc6cc(OS(=O)(=O)O)cc7oc(-c8ccc(OS(=O)(=O)O)c(OS(=O)(=O)O)c8)c(OS(=O)(=O)O)c(=O)c67)c5c(=O)c4OS(=O)(=O)O)ccc3OS(=O)(=O)O)c12 [compound 1, reference compound] |  |  | fold less potent than inhibitor 16 against FXIIIa (FXIIIa [1]): at least 15 fold; HS (Hill slope), FXIIIa inhibition (FXIIIa [4]): 0.9 ±0.2 |
| Cc1ccc(C(=O)Nc2cc(S(=O)(=O)O)cc3ccc(S(=O)(=O)O)cc23)cc1NC(=O)Nc1cc(C(=O)Nc2cc(S(=O)(=O)O)cc3ccc(S(=O)(=O)O)cc23)ccc1C [compound 8] |  | > 50 µM | FXIIIa inhibition at the highest concentration tested (FXIIIa [1]): did not inhibit |
| O=C(Nc1cc(C(=O)Nc2ccc(S(=O)(=O)O)cc2S(=O)(=O)O)cc(C(=O)Nc2ccc(S(=O)(=O)O)cc2S(=O)(=O)O)c1)Nc1cc(C(=O)Nc2ccc(S(=O)(=O)O)cc2S(=O)(=O)O)cc(C(=O)Nc2ccc(S(=O)(=O)O)cc2S(=O)(=O)O)c1 [compound 9] | 0.9 ± 0.2 | 286 ± 71.5 µM |  |
